Reference: patent US20130122541A1, “MICROORGANISM PRODUCTION OF HIGH-VALUE CHEMICAL PRODUCTS, AND RELATED COMPOSITIONS, METHODS AND SYSTEMS” (The Regents of the University of Colorado, priority 2010, published 2013)
Values after ≈ are worked out from the molar mass of the structure shown. Read-outs that look alike come from different tables or passages of the source.

Columns and labels:
[1] = tested on: Yeast strains (S288C background); test: microbe, parasite or virus in culture; format: cell-based, Saccharomyces cerevisiae; settings: for MIC: Saccharomyces cerevisiae
Method: The minimum inhibitory concentration (MIC) was determined aerobically in a 96 well-plate format. […] Media supplements were added according to levels reported in the Supplements Table, where specified. Overnight cultures of strains were grown in triplicate in 5 mL SD media with vitamins (Methods in Enzymology vol. 350, page 17 (2002)). A 1% (v/v) inoculum was introduced into a 5 ml culture of SD minimal media without vitamins. After the cells reached mid-exponential phase, the culture was diluted to an OD600 of 0.200. The cells were further diluted 1:5 and a 10 μL aliquot was used to inoculate each well of a 96 well plate (˜10^4 cells per well) to total volume of 100 uL. […] Plates were incubated for 72 hours at 30 C.

[2] = tested on: wild-type E. coli BW25113; test: Growth response to 3-HP (toleragram, OD600, doublings over 24 h), E. coli aerobic; format: cell-based; settings: aerobic condition, FIG. 15B
Method: Overnight cultures of wild-type E. coli BW25113 were grown in triplicate in 5 mL standard LB medium. 100 uL of overnight cultures were used to inoculate triplicate 5 mL samples of M9 minimal medium+3HP, containing 47.7 mM Na2HPO4, 22 mM KH2PO4, 8.6 mM NaCl, 18.7 mM NH4Cl, 2 mM MgSO4, 0.1 mM CaCl2, and 0.4% glucose, with 3HP concentrations ranging from 0-50 g/L. Starting OD600 ranged from 0.02-0.08. Cultures were incubated at 37 C for about 24 hours, and OD600 was recorded every 1-2 hours for the first 8 hours with a final OD600 recorded at about 24 hours. Maximum specific growth rates (μmax) were calculated by determining the optimal fit of exponential trend lines with OD data for the evaluation period. Specific changes in OD600 over approximately 24 hours (Δ24 hrOD600) were calculated as the difference in t=24 hr and t=0 optical density, Δ24hOD600=(ODt=24)−(ODt=0). Specific number of doublings (Nd) were calculated by solving for N in the equation 2^N=(ODt=24)/(ODt=0).

[3] = 3-HP preparation: neutralisation of commercial 3-HP to pH 7.0, observation of insoluble matter; format: physicochemical
Excerpt: 3-HP was obtained from TCI America (Portland, Oreg.). Significant acrylic acid and 2-oxydipropionic contamination was observed via HPLC analysis. Samples were subsequently treated by diethyl ether extraction to remove acrylic acid and a portion of the 2-oxydipropionic contaminants. Samples were then neutralized with 10 M NaOH to a final pH of 7.0. […] The working stock solution was used for the selection and MIC evaluations in this example.
3-HP was obtained from TCI America (Portland, Oreg.). Significant acrylic acid and 2-oxydipropionic contamination was observed via HPLC analysis. Samples were subsequently treated by diethyl ether extraction to remove acrylic acid and a portion of the 2-oxydipropionic contaminants. Samples were then neutralized with 10 M NaOH to a final pH of 7.0. […] The working stock solution was used for the selection, growth rates and MIC evaluations in this example.

[4] = Reactive extraction of 3-HP from clarified fermentation broth into tertiary amine non-polar phase with co-solvents; format: physicochemical; settings: for 3-HP concentration raffinate: start 96.85 g/L 3-HP, single pass
Method: Calcium chloride at 1 M was added as a flocculent to reach a final concentration of about 8.2 g/L. Thereafter the pH was adjusted to a pH of approximately 2.0 using sulfuric acid. Thereafter a volume of this modified fermentation broth was centrifuged at approximately 3,200 g for 5 minutes to yield a clarified broth and a pellet, which was discarded.
Portions of the clarified broth were then subjected to reactive extraction by mixing with a tertiary amine non-polar phase comprising various co-solvents. […] Amines included Alamine 336, described above, and tripentylamine.

[5] = sample 1: Alamine 336 with Butanol
[6] = sample 2: Tripentylamine with Butanol
[7] = sample 3: Tripentylamine with p-Xylene
[8] = sample 4: Tripentylamine with Methyl ethyl ketone
[9] = sample 5: Tripentylamine with Methyl tert-butyl ether
[10] = sample 1: Alamine 336 with Butanol, 3-HP mass start 0.97 G
[11] = sample 2: Tripentylamine with Butanol, 3-HP mass start 1.94 G
[12] = sample 3: Tripentylamine with p-Xylene, 3-HP mass start 1.94 G
[13] = sample 4: Tripentylamine with Methyl ethyl ketone, 3-HP mass start 1.94 G
[14] = sample 5: Tripentylamine with Methyl tert-butyl ether, 3-HP mass start 1.94 G

For `O=C(O)CCO` [3-HP, 3-hydroxypropionic acid], the “% Increase Over Control” value ([1]; S288C, SC media vs SD control, aerobic) was 33%, the MIC ([1]; read-out: Average MIC Assay Result (g/L 3-HP), S288C, SC media, supplements none, aerobic) was 60 g/L (≈ 666 mM) and the MIC ([1]; read-out: Average MIC Assay Result (g/L 3-HP), S288C, SD media, supplements none (control), aerobic) was 45 g/L (≈ 500 mM). It also gave an MIC ([1]; read-out: MIC Assay Result (g/L 3-HP), strain YX-022 (BY4722, pyes2.1-Aro3 pRS425-ILV6), SD, aerobic) of 60 g/L (≈ 666 mM), an MIC ([1]; read-out: MIC Assay Result (g/L 3-HP), strain YX-CJR-001 (BY4709, pRS426 EV, control), SD, aerobic) of 40 g/L (≈ 444 mM) and an MIC ([1]; read-out: MIC Assay Result (g/L 3-HP), strain YX-CJR-002 (BY4709, pYes2.1-spe3), SD, aerobic) of 50 g/L (≈ 555 mM). For the same compound, the MIC ([1]; read-out: MIC Assay Result (g/L 3-HP), strain YX-CJR-003 (BY4709, pYes2.1-hom2), SD, aerobic) was 47 g/L (≈ 522 mM), the MIC ([1]; read-out: MIC Assay Result (g/L 3-HP), strain YX-CJR-005 (BY4709, pYes2.1-Met6), SD, aerobic) was 50 g/L (≈ 555 mM) and the MIC ([1]; read-out: MIC Assay Result (g/L 3-HP), strain YX-CJR-006 (BY4709, pYes2.1-Ilv2), SD, aerobic) was 57 g/L (≈ 633 mM). The MIC ([1]; read-out: MIC Assay Result (g/L 3-HP), strain YX-CJR-010 (BY4709, pyes2.1-Thr1), SD, aerobic) was 60 g/L (≈ 666 mM), the MIC ([1]; read-out: MIC Assay Result (g/L 3-HP), strain YX-CJR-014 (BY4709, pyes2.1-arg2), SD, aerobic) was 60 g/L (≈ 666 mM) and the MIC ([1]; read-out: MIC Assay Result (g/L 3-HP), strain YX-CJR-017 (BY4709, pyes2.1-Aro7), SD, aerobic) was 70 g/L (≈ 777 mM). For the same compound, the “% Increase Over Control” value ([1]; strain YX-022 (pyes2.1-Aro3 pRS425-ILV6) vs control, aerobic) was 50%, the “% Increase Over Control” value ([1]; strain YX-CJR-002 (pYes2.1-spe3) vs YX-CJR-001, aerobic) was 25% and the “% Increase Over Control” value ([1]; strain YX-CJR-003 (pYes2.1-hom2) vs YX-CJR-001, aerobic) was 17%. For the same compound, the “% Increase Over Control” value ([1]; strain YX-CJR-005 (pYes2.1-Met6) vs YX-CJR-001, aerobic) was 25%, the “% Increase Over Control” value ([1]; strain YX-CJR-006 (pYes2.1-Ilv2) vs YX-CJR-001, aerobic) was 42% and the “% Increase Over Control” value ([1]; strain YX-CJR-010 (pyes2.1-Thr1) vs YX-CJR-001, aerobic) was 50%. The “% Increase Over Control” value ([1]; strain YX-CJR-014 (pyes2.1-arg2) vs YX-CJR-001, aerobic) was 50%, the “% Increase Over Control” value ([1]; strain YX-CJR-017 (pyes2.1-Aro7) vs YX-CJR-001, aerobic) was 75% and the “3-HP concentration at which a dramatic reduction in cell density (OD600) at 24 hours starts” value [2] was 30 g/L. For the same compound, the “3-HP concentration in excess of which considerable 3-HP polymerization was observed at neutral pH” value ([3]; commercial 3-HP (TCI America), ether extracted, neutralized with 10 M NaOH to pH 7.0) was “approximately 35 g/L”, the solubility ([3]; pH 7, aqueous buffer) was ~35 mg/mL (≈ 389 mM) and the “Total 3HP extracted” value [4, 5] was 0.59 G. For the same compound, the “Total 3HP extracted” value [4, 6] was 1.13 G, the “Total 3HP extracted” value [4, 7] was 0.46 G and the “Total 3HP extracted” value [4, 8] was 1.31 G. For the same compound, the “Total 3HP extracted” value [4, 9] was 0.73 G, the % 3-HP extracted [4, 5] was 61% and the % 3-HP raffinate [4, 5] was 39%. The 3-HP concentration raffinate ([4]; sample 1: Alamine 336 with Butanol co-solvent) was 53.94 g/L, the 3-HP mass extractant [4, 10] was 0.59 G and the 3-HP mass raffinate [4, 10] was 0.38 G. For the same compound, the % 3-HP extracted [4, 6] was 58%, the % 3-HP raffinate [4, 6] was 42% and the 3-HP concentration raffinate ([4]; sample 2: Tripentylamine with Butanol co-solvent) was 54.17 g/L. It also gave a 3-HP mass extractant [4, 11] of 1.13 G, a 3-HP mass raffinate [4, 11] of 0.81 G and a % 3-HP extracted [4, 7] of 24%. The % 3-HP raffinate [4, 7] was 76%, the 3-HP concentration raffinate ([4]; sample 3: Tripentylamine with p-Xylene co-solvent) was 78.69 g/L and the 3-HP mass extractant [4, 12] was 0.46 G. For the same compound, the 3-HP mass raffinate [4, 12] was 1.47 G, the % 3-HP extracted [4, 8] was 67% and the % 3-HP raffinate [4, 8] was 33%. The 3-HP concentration raffinate ([4]; sample 4: Tripentylamine with Methyl ethyl ketone co-solvent) was 52.75 g/L, the 3-HP mass extractant [4, 13] was 1.31 G and the 3-HP mass raffinate [4, 13] was 0.63 G. It also gave a % 3-HP extracted [4, 9] of 38%, a % 3-HP raffinate [4, 9] of 62% and a 3-HP concentration raffinate ([4]; sample 5: Tripentylamine with Methyl tert-butyl ether co-solvent) of 67.64 g/L. The 3-HP mass extractant [4, 14] was 0.73 G and the 3-HP mass raffinate [4, 14] was 1.21 G.
